Experimental data reported in the supplement of paper PMC11451515.

System: P12-Ichikawa
Assay: cell viability relative to DMSO control; higher = less cytotoxic
Conditions: 48 h
Outline: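 NOMO1 or SEM (500 cells/well) or P12-Ichikawa (1000 cells/well) leukemia cells were adapted for at least four passages in each medium. They were seeded in 1536-well plates (5 μl) and pin-dosed with library compounds in DMSO over an 11-point threefold series, 47 μM to 0.79 nM. CellTiter-Glo One luminescence was read after 48 h at 37°C. Viability is the per-plate percentage relative to DMSO wells, with cell-free wells as background.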

[1] = HPLM + 10% dialyzed FBS, 0.000781 µM
[2] = HPLM + 10% dialyzed FBS, 0.00234 µM
[3] = HPLM + 10% dialyzed FBS, 0.00702 µM
[4] = HPLM + 10% dialyzed FBS, 0.0211 µM
[5] = HPLM + 10% dialyzed FBS, 0.0632 µM
[6] = HPLM + 10% dialyzed FBS, 0.19 µM
[7] = HPLM + 10% dialyzed FBS, 0.569 µM
[8] = HPLM + 10% dialyzed FBS, 1.71 µM
[9] = HPLM + 10% dialyzed FBS, 5.12 µM
[10] = HPLM + 10% dialyzed FBS, 15.4 µM
[11] = HPLM + 10% dialyzed FBS, 46.1 µM
[12] = RPMI 5 mM glucose + 10% FBS, 0.000781 µM
[13] = RPMI 5 mM glucose + 10% FBS, 0.00234 µM
[14] = RPMI 5 mM glucose + 10% FBS, 0.00702 µM
[15] = RPMI 5 mM glucose + 10% FBS, 0.0211 µM
[16] = RPMI 5 mM glucose + 10% FBS, 0.0632 µM
[17] = RPMI 5 mM glucose + 10% FBS, 0.19 µM
[18] = RPMI 5 mM glucose + 10% FBS, 0.569 µM
[19] = RPMI 5 mM glucose + 10% FBS, 1.71 µM
[20] = RPMI 5 mM glucose + 10% FBS, 5.12 µM
[21] = RPMI 5 mM glucose + 10% FBS, 15.4 µM
[22] = RPMI 5 mM glucose + 10% FBS, 46.1 µM
[23] = RPMI 5 mM glucose + 10% dialyzed FBS, 0.000781 µM
[24] = RPMI 5 mM glucose + 10% dialyzed FBS, 0.00234 µM
[25] = RPMI 5 mM glucose + 10% dialyzed FBS, 0.00702 µM
[26] = RPMI 5 mM glucose + 10% dialyzed FBS, 0.0211 µM
[27] = RPMI 5 mM glucose + 10% dialyzed FBS, 0.0632 µM
[28] = RPMI 5 mM glucose + 10% dialyzed FBS, 0.19 µM
[29] = RPMI 5 mM glucose + 10% dialyzed FBS, 0.569 µM
[30] = RPMI 5 mM glucose + 10% dialyzed FBS, 1.71 µM
[31] = RPMI 5 mM glucose + 10% dialyzed FBS, 5.12 µM
[32] = RPMI 5 mM glucose + 10% dialyzed FBS, 15.4 µM
[33] = RPMI 5 mM glucose + 10% dialyzed FBS, 46.1 µM

| SMILES | cell viability [1] [%] | cell viability [2] [%] | cell viability [3] [%] | cell viability [4] [%] | cell viability [5] [%] | cell viability [6] [%] | cell viability [7] [%] | cell viability [8] [%] | cell viability [9] [%] | cell viability [10] [%] | cell viability [11] [%] | cell viability [12] [%] | cell viability [13] [%] | cell viability [14] [%] | cell viability [15] [%] | cell viability [16] [%] | cell viability [17] [%] | cell viability [18] [%] | cell viability [19] [%] | cell viability [20] [%] | cell viability [21] [%] | cell viability [22] [%] | cell viability [23] [%] | cell viability [24] [%] | cell viability [25] [%] | cell viability [26] [%] | cell viability [27] [%] | cell viability [28] [%] | cell viability [29] [%] | cell viability [30] [%] | cell viability [31] [%] | cell viability [32] [%] | cell viability [33] [%] |
| --- | --- | --- | --- | --- | --- | --- | --- | --- | --- | --- | --- | --- | --- | --- | --- | --- | --- | --- | --- | --- | --- | --- | --- | --- | --- | --- | --- | --- | --- | --- | --- | --- | --- |
| N[S+]([O-])(=O)C1=C(Cl)C=C2\N=C/N[S+]([O-])(=O)C2=C1 | 101 | 100 | 102 | 97.5 | 106 | 108 | 108 | 119 | 110 | 106 | 109 | 97.3 | 106 | 107 | 113 | 117 | 114 | 112 | 122 | 115 | 120 | 122 | 101 | 96.2 | 111 | 115 | 114 | 110 | 114 | 100 | 115 | 115 | 109 |
| CC(C)C1NC(=O)C(NC(=O)C2=C3\N=C\4/C(=C(C)\C(=O)\C(=C4C(=O)NC5C(C)OC(=O)C(C(C)C)N(C)C(=O)CN(C)C(=O)C6CCCN6C(=O)C(NC5=O)C(C)C)N)OC3=C(C)C=C2)C(C)OC(=O)C(C(C)C)N(C)C(=O)CN(C)C(=O)C7CCCN7C1=O (stereo not drawn) | 8.89 | 7.61 | 7.74 | 7.98 | 8.48 | 7.48 | 8.02 | 5.74 | 3.17 | 4.3 | 1.52 | 7.97 | 8.99 | 7.91 | 6.03 | 5.96 | 6.1 | 5.29 | 3.26 | 1.15 | 2.04 | 1.27 | 9.93 | 10.6 | 9.2 | 10.8 | 7.89 | 8.14 | 8.28 | 7.16 | 6.45 | 4.57 | 3.47 |
| OC[C@@H](O)[C@@H](O)[C@H](O)[C@@H](O)CO | 106 | 110 | 107 | 108 | 127 | 127 | 112 | 112 | 124 | 114 | 122 | 116 | 115 | 122 | 123 | 136 | 126 | 132 | 141 | 130 | 135 | 139 | 109 | 109 | 120 | 109 | 123 | 123 | 117 | 120 | 126 | 118 | 127 |
| c1ccc2[nH]c(-c3cscn3)nc2c1 | 115 | 124 | 124 | 128 | 122 | 128 | 122 | 122 | 108 | 86 | 74.6 | 113 | 118 | 110 | 122 | 128 | 120 | 128 | 120 | 135 | 117 | 90.7 | 124 | 131 | 122 | 124 | 130 | 127 | 130 | 121 | 125 | 109 | 72.9 |
| O=C(C=CC#Cc1cccc(N[S+](=O)([O-])c2ccccc2)c1)NO | 110 | 113 | 118 | 116 | 119 | 114 | 103 | 92.7 | 3.67 | 3.02 | 3 | 113 | 119 | 116 | 123 | 117 | 116 | 122 | 75.6 | 6.32 | 3.14 | 2.9 | 113 | 114 | 117 | 121 | 117 | 117 | 113 | 80.4 | 3.83 | 2.6 | 2.95 |
| CN[C@@H]1[C@@H](O)[C@@H](O[C@@H]2[C@@H](O)[C@H](O[C@H]3O[C@H](CN)[C@@H](O)[C@H](O)[C@H]3O)[C@@H](N)C[C@H]2NC(=O)[C@@H](O)CN)OC[C@]1(C)O | 123 | 131 | 124 | 122 | 128 | 120 | 126 | 113 | 110 | 108 | 108 | – | – | – | – | – | – | – | – | – | – | – | – | – | – | – | – | – | – | – | – | – | – |
| CCN1CCN(c2ccc(Nc3cc(N(C)C(=O)Nc4c(Cl)c(OC)cc(OC)c4Cl)ncn3)cc2)CC1 | 107 | 109 | 103 | 108 | 106 | 97.8 | 97.4 | 105 | 77.7 | 73.3 | 35.3 | 115 | 114 | 119 | 124 | 118 | 118 | 113 | 115 | 86 | 76.7 | 47.6 | 114 | 112 | 108 | 124 | 114 | 126 | 111 | 110 | 76.8 | 66.8 | 53.2 |
| Cc1nn(Cc2ccccc2Cl)c(C)c1CN(C)CC(O)COc1ccc(Cl)cc1 (stereo not drawn) | 110 | 101 | 105 | 104 | 108 | 108 | 102 | 97.4 | 104 | 95.1 | 59.6 | 93.9 | 94.5 | 93 | 108 | 97 | 101 | 94.5 | 91.5 | 92.1 | 83.7 | 42.8 | 94 | 98.3 | 95.2 | 95.7 | 98.2 | 92.6 | 94.9 | 92.1 | 89.4 | 89.1 | 39.6 |
| C[C@]12CC[C@@H]3c4ccc(O)cc4CC[C@H]3[C@@H]1[C@@H](O)[C@@H](O)[C@@H]2O | 119 | 117 | 119 | 112 | 120 | 124 | 122 | 120 | 119 | 125 | 124 | 105 | 113 | 109 | 104 | 123 | 118 | 122 | 121 | 126 | 131 | 113 | 111 | 120 | 118 | 115 | 120 | 127 | 127 | 133 | 127 | 129 | 135 |
| FC1=CC=C(C=C1)N2/C=C\C=C(C(=O)NC3=CC=C(OC4=C5C=C[NH]C5=NC=C4)C(=C3)F)/C2=O | 99 | 111 | 107 | 114 | 117 | 118 | 122 | 112 | 114 | 123 | 115 | 104 | 111 | 121 | 112 | 132 | 119 | 128 | 122 | 127 | 119 | 111 | 109 | 107 | 114 | 125 | 117 | 124 | 125 | 119 | 129 | 120 | 114 |
| C[S+](=O)([O-])Nc1ccc([N+](=O)[O-])cc1Oc1ccccc1 | 114 | 115 | 111 | 120 | 112 | 115 | 118 | 109 | 109 | 102 | 59.4 | 122 | 121 | 120 | 119 | 120 | 122 | 116 | 111 | 116 | 112 | 28.5 | 110 | 108 | 114 | 113 | 121 | 110 | 117 | 103 | 106 | 103 | 48.7 |
| CC(C)c1nc(CN(C)C(=O)N[C@H](C(=O)N[C@@H](Cc2ccccc2)C[C@H](O)[C@H](Cc2ccccc2)NC(=O)OCc2cncs2)C(C)C)cs1 | 91.9 | 87.4 | 87.2 | 102 | 103 | 92.1 | 78.4 | 78.2 | 83.9 | 85.8 | 89.6 | 87.2 | 86.5 | 87.7 | 84.2 | 92.4 | 92.6 | 77.2 | 90.1 | 81.5 | 79.8 | 88.2 | 85.3 | 79.8 | 89.4 | 83.4 | 92.6 | 87.2 | 70.8 | 82.2 | 77.9 | 82.8 | 82.3 |
| COC(=O)Nc1cc(Nc2cc(NC3CC3)c3ncc(C#N)n3n2)c(Cl)c(N2CCN(C)CC2)c1 | 107 | 102 | 102 | 111 | 106 | 97.4 | 106 | 103 | 76.8 | 65.3 | 3.92 | 104 | 104 | 102 | 106 | 105 | 108 | 105 | 92.8 | 67 | 41.5 | 4.51 | 106 | 108 | 111 | 108 | 109 | 102 | 104 | 95 | 63.7 | 36.1 | 4.2 |
| O=C(c1ccc(F)cc1)N1CCC[C@H](c2nc(-c3ccc(F)cc3)no2)C1 | 119 | 121 | 120 | 124 | 117 | 121 | 116 | 113 | 107 | 113 | 106 | 115 | 122 | 122 | 128 | 144 | 120 | 128 | 116 | 111 | 114 | 115 | 120 | 128 | 123 | 119 | 117 | 126 | 116 | 105 | 118 | 110 | 111 |
| N[S+]([O-])(=O)C1=CC=C(NC/2=C/C(=O)C3=CC=CC=C3C2=O)C=C1 | 102 | 115 | 119 | 114 | 129 | 120 | 123 | 118 | 117 | 118 | 115 | 110 | 112 | 108 | 112 | 112 | 124 | 125 | 126 | 111 | 124 | 100 | 107 | 114 | 113 | 120 | 117 | 121 | 128 | 124 | 121 | 131 | 105 |
